Earlier results on two compounds are cited in patent EP3697221B1, “AQUEOUS SUSPENSION CONCENTRATES BASED ON 2-[(2,4-DICHLOROPHENYL)-METHYL]-4,4'-DIMETHYL-3-ISOXAZOLIDINONE” (Bayer Aktiengesellschaft, priority 2017, dated 2019).

Each structure is given as a SMILES string.

For this data set the following is noted: water.

As to `CC1(C)CON(Cc2ccc(Cl)cc2Cl)C1=O` [DCPMI, 2-[(2,4-Dichlorphenyl)-methyl]-4,4'-dimethyl-3-isoxazolidinone], the Wasserlöslichkeit is 39,5 ppm.

In the case of `CC1(C)CON(Cc2ccccc2Cl)C1=O` [Clomazone, 2-(2-chlorobenzyl)-4,4-dimethyl-1,2-oxazolidin-3-one], the Wasserlöslichkeit is reported as 1000 ppm.
